{"source": "paper PMC6378217", "about": "“The lysyl oxidase like 2/3 enzymatic inhibitor, PXS‐5153A, reduces crosslinks and ameliorates fibrosis” (Journal of Cellular and Molecular Medicine, 2018)", "key": {"Dopamine D1": {"molecular_target": "Dopamine D1 (Homo sapiens, UniProt P21728)", "sequence (P21728 whole entry)": "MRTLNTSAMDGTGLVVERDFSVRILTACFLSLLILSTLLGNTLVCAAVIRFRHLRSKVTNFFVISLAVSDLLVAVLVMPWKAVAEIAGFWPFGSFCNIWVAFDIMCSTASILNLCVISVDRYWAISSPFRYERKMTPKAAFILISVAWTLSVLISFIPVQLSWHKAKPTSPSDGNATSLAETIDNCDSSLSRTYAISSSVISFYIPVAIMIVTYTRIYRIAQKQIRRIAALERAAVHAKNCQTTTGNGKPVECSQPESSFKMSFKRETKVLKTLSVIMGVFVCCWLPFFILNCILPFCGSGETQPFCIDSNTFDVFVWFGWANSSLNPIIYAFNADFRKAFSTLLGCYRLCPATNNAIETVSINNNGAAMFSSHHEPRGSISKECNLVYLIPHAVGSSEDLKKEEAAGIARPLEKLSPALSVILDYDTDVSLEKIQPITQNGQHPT", "test": "Eurofins Hit Profiling Screen", "format": "binding", "details": "10 μmol/L"}, "[1]": {"system": "GABAA, Flunitrazepam, Central", "test": "Eurofins Hit Profiling Screen", "format": "binding", "details": "10 μmol/L"}, "Imidazoline I2, Central": {"system": "Imidazoline I2, Central", "test": "Eurofins Hit Profiling Screen", "format": "binding", "details": "10 μmol/L"}, "[2]": {"system": "NASH-induced liver disease", "test": "NASH-induced liver disease (streptozotocin/high fat diet, STAM)", "format": "in vivo, C57/BL6 mice", "description": "Pellet then underwent acid hydrolysis in 6 mol/L HCl at 100°C for 24 hours. Hydroxyproline and crosslinks were extracted from the hydrolysate using an automated solid phase extraction system (Gilson […] system). After extraction and drying, hydroxyproline and crosslinks were analysed by UHPLC-ESI-MS/MS on a Thermo Dionex UHPLC and TSQ Endura triple quad mass spectrometer. Total protein was quantified in the samples using a commercially available kit (QuickZyme Biosciences, Leiden, The Netherlands). For detailed procedures, see supporting information. The study was performed by Stelic MC, Inc. (Tokyo, Japan) with approval from local ethics committee. NASH was established in male C57/BL6 mice by a single subcutaneous injection of 200 μg streptozotocin (Sigma-Aldrich) after birth and with a high fat diet (CLEA Japan) ad libitum after 4 weeks of age (day 28 ± 2) until 14 weeks of age. Mice were orally administered with 10 mg/kg PXS-5153A once daily from 8 to 14 weeks of age. ALT levels were assessed in the plasma. One lobe of the liver tissue was fixed in 10% formalin, stained for Sirius red and the percentage coverage area was measured; HE staining was performed to estimate non-alcoholic fatty liver disease (NAFLD) activity score according to the criteria of Kleiner et al28 The remainder of the liver was snap frozen and used for protein, hydroxyproline and crosslink analysis."}, "[3]": {"molecular_target": "Serotonin (5-Hydroxytryptamine) 5-HT2B (Homo sapiens, UniProt P41595)", "sequence (P41595 whole entry)": "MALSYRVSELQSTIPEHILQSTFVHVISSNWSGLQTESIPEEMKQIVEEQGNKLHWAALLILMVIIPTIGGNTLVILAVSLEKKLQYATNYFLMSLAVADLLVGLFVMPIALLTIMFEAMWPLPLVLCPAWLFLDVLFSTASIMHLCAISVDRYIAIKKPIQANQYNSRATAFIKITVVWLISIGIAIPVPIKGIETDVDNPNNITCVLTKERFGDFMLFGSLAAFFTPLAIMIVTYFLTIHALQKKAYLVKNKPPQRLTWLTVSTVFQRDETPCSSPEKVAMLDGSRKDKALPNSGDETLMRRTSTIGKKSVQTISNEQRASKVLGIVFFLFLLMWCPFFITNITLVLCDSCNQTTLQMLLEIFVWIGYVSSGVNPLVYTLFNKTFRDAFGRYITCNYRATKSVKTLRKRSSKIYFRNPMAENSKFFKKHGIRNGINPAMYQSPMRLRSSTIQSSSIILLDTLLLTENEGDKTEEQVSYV", "test": "Eurofins Hit Profiling Screen", "format": "binding", "details": "10 μmol/L"}, "Nicotinic Acetylcholine": {"system": "Nicotinic Acetylcholine", "test": "Eurofins Hit Profiling Screen", "format": "binding", "details": "10 μmol/L"}, "Rolipram": {"system": "Rolipram", "test": "Eurofins Hit Profiling Screen", "format": "binding", "details": "10 μmol/L"}, "Recombinant rat LOXL2": {"molecular_target": "T1, Recombinant rat LOXL2 (Rattus norvegicus, UniProt B5DF27)", "T1 construct": "made in house; host or cells: HEK-293 clones provided by Dr. Fernando Rodríguez Pascual", "T1 sequence (B5DF27 26-776)": "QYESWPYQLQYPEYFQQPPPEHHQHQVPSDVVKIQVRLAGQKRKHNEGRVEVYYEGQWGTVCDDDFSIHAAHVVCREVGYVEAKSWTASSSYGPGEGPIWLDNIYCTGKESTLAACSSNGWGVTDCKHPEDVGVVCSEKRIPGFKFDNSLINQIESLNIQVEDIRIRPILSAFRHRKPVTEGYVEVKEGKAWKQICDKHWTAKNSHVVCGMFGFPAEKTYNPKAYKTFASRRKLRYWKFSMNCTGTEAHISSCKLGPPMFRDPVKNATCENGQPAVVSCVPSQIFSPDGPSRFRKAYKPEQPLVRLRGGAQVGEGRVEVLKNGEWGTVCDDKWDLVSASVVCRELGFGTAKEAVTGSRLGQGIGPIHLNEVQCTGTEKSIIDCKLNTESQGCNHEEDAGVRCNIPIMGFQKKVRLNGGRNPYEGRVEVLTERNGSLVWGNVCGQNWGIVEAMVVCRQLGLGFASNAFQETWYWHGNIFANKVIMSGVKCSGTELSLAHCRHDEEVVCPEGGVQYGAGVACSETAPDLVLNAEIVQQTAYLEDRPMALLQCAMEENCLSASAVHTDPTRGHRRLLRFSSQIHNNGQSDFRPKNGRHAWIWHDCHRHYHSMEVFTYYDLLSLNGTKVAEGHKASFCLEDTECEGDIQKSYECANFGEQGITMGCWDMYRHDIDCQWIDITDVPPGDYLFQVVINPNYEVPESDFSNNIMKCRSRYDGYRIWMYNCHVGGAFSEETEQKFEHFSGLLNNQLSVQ", "test": "Amplex-Red fluorometric enzymatic activity assay, recombinant rat LOXL2", "format": "biochemical", "details": "30 minute pre-incubation; average of at least three experiments", "description": "(§1) The measurement of the enzymatic activity of all lysyl oxidase family members was based on the detection of hydrogen peroxide with an Amplex‐Red oxidation assay, as described in Zhou et al26 Recombinant human semicarbazide sensitive amine oxidase (SSAO/VAP1), diamine oxidase (DAO) and monoamine oxidases A and B (MAO‐A and MAO‐B) assays were performed as previously described.27 For detailed enzymatic procedures, see supporting information.\nThe measurement of the enzymatic activity of all lysyl oxidase family members was based on the detection of hydrogen peroxide with an Amplex-Red oxidation assay, as described in Zhou et al.[1]; miniaturised in 384 well format, with the appropriate combination of substrate and assay buffer for each individual enzyme. After a 30 minute pre-incubation of the enzyme at 37 °C with the test compound (or with different incubation times for the time-dependency assay), one volume of reaction mixture containing 120 μM Amplex Red (AR) (Life Technologies), 1.5 U/mL horseradish peroxidase (HRP) (Sigma-Aldrich) and the specific substrate was added to each sample. The relative fluorescence units (RFU) were then measured every 2.5 minutes for 30 minutes at 37°C, excitation 565 nm and emission 590, on a BMG Clariostar Microplate Reader. […]"}, "MAO-B": {"molecular_target": "MAO-B (Homo sapiens, UniProt P27338)", "sequence (P27338 whole entry)": "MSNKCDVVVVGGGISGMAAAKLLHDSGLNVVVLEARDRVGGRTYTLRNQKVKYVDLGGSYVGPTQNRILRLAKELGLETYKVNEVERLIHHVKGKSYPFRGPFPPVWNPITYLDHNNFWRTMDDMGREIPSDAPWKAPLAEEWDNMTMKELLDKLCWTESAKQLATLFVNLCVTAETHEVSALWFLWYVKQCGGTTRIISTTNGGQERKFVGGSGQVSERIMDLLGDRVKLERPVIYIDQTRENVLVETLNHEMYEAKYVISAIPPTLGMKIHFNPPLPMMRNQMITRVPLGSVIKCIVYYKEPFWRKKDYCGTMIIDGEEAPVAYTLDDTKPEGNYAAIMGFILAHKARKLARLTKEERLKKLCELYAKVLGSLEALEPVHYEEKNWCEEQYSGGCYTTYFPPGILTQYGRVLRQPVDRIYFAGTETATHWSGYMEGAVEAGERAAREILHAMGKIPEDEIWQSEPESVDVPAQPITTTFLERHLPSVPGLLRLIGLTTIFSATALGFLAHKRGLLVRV", "test": "MAO-B enzymatic activity assay", "format": "biochemical", "description": "as §1\nRecombinant human semicarbazide sensitive amine oxidase (SSAO/VAP1), diamine oxidase (DAO) and monoamine oxidases A and B (MAO-A and MAO-B) assays were performed as previously described."}, "[4]": {"test": "Pharmacokinetic study in mice", "format": "in vivo, C57/BL6 mice", "details": "mouse", "description": "Studies were performed by Pharmalegacy (Shanghai, China), GVK (Hyderabad, India) and Sundia, (Shanghai, China), with local ethics approval. Wistar rats were administered PXS‐5153A orally at 10 mg/kg or intravenously at 5 mg/kg, while C57/BL6 mice received PXS‐5153A orally or intravenously at 5 mg/kg. Plasma was analysed for PXS‐5153A by high‐performance liquid chromatography‐mass spectrometry/mass spectrometry (LCMS/MS)."}, "[5]": {"system": "Calcium Channel L-Type, Dihydropyridine", "test": "Eurofins Hit Profiling Screen", "format": "binding, rat", "details": "10 μmol/L"}}}
{"smiles": "Cc1c(-c2cccc(S(=O)(=O)N(C)C)c2)c2ncccc2n1C/C(F)=C/CN.Cl.Cl", "note": "[PXS-5153A]", "values": [{"measurement": "% inhibition", "setting": "Dopamine D1", "value": 6, "unit": "%"}, {"measurement": "% inhibition", "setting": "[1]", "value": 26, "unit": "%"}, {"measurement": "% inhibition", "setting": "Imidazoline I2, Central", "value": 57, "unit": "%"}, {"measurement": "DHLNL", "setting": "[2]; 10 mg/kg orally once daily", "value": "significantly reduced"}, {"measurement": "NASH disease score (NAFLD activity score)", "setting": "[2]; 10 mg/kg orally once daily", "value": "reduction"}, {"measurement": "PYD", "setting": "[2]; 10 mg/kg orally once daily", "value": "significantly reduced"}, {"measurement": "hepatocyte ballooning", "setting": "[2]; 10 mg/kg orally once daily", "value": "significantly reduced"}, {"measurement": "percentage coverage area by Picrosirius red staining", "setting": "[2]; 10 mg/kg orally once daily", "value": "reduced"}, {"measurement": "HYP", "setting": "[2]; 10 mg/kg orally once daily from 8 to 14 weeks of age", "value": "significantly reduction"}, {"measurement": "% inhibition", "setting": "[3]", "value": 33, "unit": "%"}, {"measurement": "% inhibition", "setting": "Nicotinic Acetylcholine", "value": 16, "unit": "%"}, {"measurement": "% inhibition", "setting": "Rolipram", "value": 28, "unit": "%"}, {"measurement": "IC50", "setting": "Recombinant rat LOXL2", "value": 15, "unit": "nM"}, {"measurement": "pIC50 ± SD", "setting": "Recombinant rat LOXL2", "value": "7.8 ± 0"}, {"measurement": "IC50", "setting": "MAO-B", "value": "> 30000", "unit": "nM"}, {"measurement": "Apparent half-life, t1/2", "setting": "[4]; intravenous 5 mg/kg", "value": 1.6, "unit": "h"}, {"measurement": "Clearance CL", "setting": "[4]; intravenous 5 mg/kg", "value": 673, "unit": "mL/min/kg"}, {"measurement": "Time of maximal concentration Tmax", "setting": "[4]; intravenous 5 mg/kg", "value": 0.08, "unit": "h"}, {"measurement": "Apparent concentration at curve maximum Cmax", "setting": "[4]; oral 5 mg/kg", "value": 113, "unit": "ng/mL"}, {"measurement": "Clearance CL", "setting": "[4]; oral 5 mg/kg", "value": 593, "unit": "mL/min/kg"}, {"measurement": "Time of maximal concentration Tmax", "setting": "[4]; oral 5 mg/kg", "value": 1, "unit": "h"}, {"measurement": "Bioavailability", "setting": "[4]; oral 5 mg/kg (i.v. 5 mg/kg)", "value": 40, "unit": "%"}, {"measurement": "% inhibition", "setting": "[5]", "value": 80, "unit": "%"}]}
